Tested on: cynomolgus monkey somatic cell nuclear transfer embryos
Test: In vitro development of cynomolgus monkey somatic cell nuclear transfer embryos to blastocyst
Type: cell-based, cynomolgus monkey (Macaca fascicularis)
Source text: Oocyte denucleation: 15-20 MII stage oocytes were transferred to a glass-bottomed and oil-sealed TH3 working drop containing […], and the position of the oocyte nucleus was observed under the inverted microscope assisted by the spindle imaging system, and the oocyte was fixed with an egg-holding needle and the oocyte nucleus was located at 3 o'clock direction. The Piezo Micromainpulator System was used to drive a flat needle with a diameter of 10 microns to break the zona pellucida, and the oocyte nucleus was removed. After the whole group of oocytes were enucleated, the enucleated oocytes were transferred to HECM-9 medium.
Injection of fibroblasts into enucleated oocytes: 15-20 enucleated oocytes were transferred to an oil-sealed TH3 working drop containing […], and the oocytes were fixed with an egg holding needle, and the polar body was placed at 12 o'clock or 6 o'clock direction. The laser zona pellucida system was used for breaking the zona pellucida to form a narrow slit. An oblique needle with a diameter of 15-18 microns was used for aspirating fibroblasts and transferring the cells to HVJ-E for 10 seconds, and then the cells were removed and injected into the perivitelline space of the enucleated egg cell through the zona pellucida slit, and the somatic cell would fuse into the oocyte in about 10 minutes.
Injection of cumulus cells into enucleated oocytes: 15-20 enucleated oocytes were transferred to an oil-sealed TH3 working drop containing […], and the oocytes were fixed with an egg holding needle, and the polar body was placed at 12 o'clock or at 6 o'clock direction. The laser zona pellucida system was used for breaking the zona pellucida to form a narrow slit. A 10-micron oblique needle was used for aspirating the cumulus cells and transferring the cells to HVJ-E to soak for 10 seconds, then the cells were removed and injected into the 9 o'clock position of the enucleated egg cell through the zona pellucida slit, and the somatic cell would fuse into the oocyte in about 10 minutes.
In vitro activation of nuclear transfer embryos: Embryo activation can be performed 1-1.5 hours after the fusion of somatic cells and enucleated oocytes. The embryos were transferred to TH3 containing 5 μM ionomycin for 5 minutes, then transferred to HECM-9 medium containing 2 mM 6-DMAP and 10 nM TSA for 5 hours, then transferred to HECM-9 containing 10 nM TSA and cultured for 5 hours, and finally transferred to HECM-9 medium for culture.
Kdm4d mRNA injection: 5-6 hours after embryo activation, the activated embryo was transferred to an oil-sealed TH3 working drop containing 5 μg/ml CB, the embryo was fixed with an egg-holding needle, and the Piezo Micromainpulator System was used to drive a flat injection needle with a diameter of 2-3 microns to break the zona pellucida and penetrate deep into the embryo. The embryo cell membrane was broken and 1000 ng/μl of Kdm4d mRNA was injected into the embryo, and each embryo was injected about 10 pl. After the injection, the embryos were transferred to HECM-9 medium and cultured at 37° C. and 5% CO2.
Embryo culture: cloned embryos were cultured in HECM-9 medium, and then transferred to HECM-9 medium containing 5% FBS at the 8-cell stage, and the medium was changed every other day until blastocysts were appeared on day 7-8.

Molecule	embryos developed to the blastocyst stage (blastocysts/embryos) (SCNT embryos cultured in vitro, TSA 10 nM, 10 h during and after activation)	blastocysts that had inner cell masses (out of 5 blastocysts, TSA 10 nM, 10 h)	effect on improving the efficiency of monkey somatic cell nuclear transfer embryos	blastocyst rate (20 injected embryos) [%]	blastocysts obtained (number) (of 20 injected monkey somatic cell nuclear transfer embryos)
CC(/C=C/C(=O)NO)=C\[C@@H](C)C(=O)c1ccc(N(C)C)cc1 [TSA, Trichostatin, reference compound]	5/31	2			
Kdm5b: H3K4me3 demethylase injected into monkey somatic cell nuclear transfer embryos			no significant effect	10	2
